{"source": "patent US20030133995A1", "about": "“Ingestible capsaicin neutralizer” (priority 2002, published 2003)", "origin": "cited, not measured here", "key": {"tongue": {"system": "tongue", "settings": "pure form diluted one hundred thousand fold"}, "[1]": {"settings": "pure form"}, "[2]": {"settings": "pure capsaicin"}}}
{"smiles": "COc1cc(CNC(=O)CCCC/C=C/C(C)C)ccc1O", "note": "[capsaicin, N-Vanillyl-8-methyl-6-(E)-noneamide]", "values": [{"measurement": "blistering of the tongue", "setting": "tongue", "value": "can cause blistering of the tongue"}, {"measurement": "solubility in aqueous solutions", "setting": "[1]; aqueous solutions", "value": "not very soluble"}, {"measurement": "solubility in fats, oils and alcohols", "setting": "[1]; fats, oils and alcohols", "value": "quite soluble"}, {"measurement": "heat sensation", "setting": "[2]", "value": "approximately 16,000,000 Scoville units"}]}
